According to patent US20210401863A1, “TREATMENT AND PREVENTION OF NEISSERIA GONORRHOEAE INFECTION USING CMP-ACTIVATED NONULOSONATE ANALOG COMPOUNDS” (NATIONAL RESEARCH COUNCIL OF CANADA, priority 2015, published 2021):
Like-named read-outs stand apart in the source and are kept apart here.

Experiments:
[1] = biological target: T1, gonococcal LOS sialyltransferase (Lst) (Neisseria gonorrhoeae, UniProt P72074); test: mAb 3F11 binding by flow cytometry (incorporation of NulO on LNnT LOS by Lst); assay type: cell-based, N. gonorrhoeae F62 ΔlgtD; conditions: F62 ΔlgtD grown in media with 20 μg/mL CMP-NulO
T1 construct: CMP-KDN served as a substrate for gonococcal Lst in the context of live bacteria; endogenous in cells; host or cells: N. gonorrhoeae F62 ΔlgtD (live bacteria)
Procedure: FIG. 1: CMP-KDN serves as a substrate for gonococcal LOS and incorporation of KDN on gonococcal lacto-N-neotetraose LOS enhances factor H (FH) binding. A. Incorporation of KDN by gonococci. Gonococcal strain F62 ΔlgtD (expresses lacto-N-neotetraose (LNnT) from Hepl) was grown in media containing CMP-KDN (20 μg/mL) and binding of mAb 3F11 was measured by flow cytometry. mAb 3F11 binds only to […] LNnT; substitution of the terminal Gal of LNnT, for example with a NulO, will decrease mAb 3F11 binding. Approximately 5×10^7 bacteria were incubated with mAb 3F11 tissue culture supernatants for 15 minutes at 37° C. Binding of mAb 3F11 was disclosed with anti-mouse IgM FITC (Sigma; dilution of 1:100). Bacteria grown in CMP-Neu5Ac or in media alone were used as positive and negative controls for sialylation, respectively. A representative histogram is shown in the upper panel. […] B. Factor H (FH) binding to gonococci grown in CMP-KDN. Approximately 5×10^7 bacteria grown in media alone (no sialic acid), media plus CMP-Neu5Ac (20 μg/mL; positive control for FH binding) or in media containing CMP-KDN (20 μg/mL) were incubated with purified human FH (20 μg/mL) in HBSS** for 15 minutes at 37° C. and bound FH was detected with affinity isolated goat anti-human FH followed by anti-goat IgG FITC (Sigma; 1:100 dilution). A representative histogram is shown in the upper panel.
FIG. 3: CMP-KDN7N3 serves as a substrate for gonococcal Lst resulting in incorporation of KDN7N3 on gonococcal lacto-N-neotetraose (LNnT) LOS—Incorporation of KDN7N3 by gonococci. Gonococcal strain F62ΔlgtD (expresses lacto-N-neotetraose (LNnT) from Hepl) was grown in media containing CMP-KDN7N3 (20 μg/mL) and binding of mAb 3F11 was measured by flow cytometry. mAb 3F11 binds only to […] LNnT; substitution of the terminal Gal of LNnT, for example with a NulO, will decrease mAb 3F11 binding. Approximately 5×10^7 bacteria were incubated with mAb 3F11 tissue culture supernatants for 15 minutes at 37° C. Binding of mAb 3F11 was disclosed with anti-mouse IgM FITC (Sigma; dilution of 1:100). […]

[2] = tested on: N. gonorrhoeae F62 ΔlgtD; assay type: cell-based, Neisseria gonorrhoeae
Procedure: Generally, bacteria (F62 ΔlgtD) grown overnight on chocolate agar plates were suspended in gonococcal liquid media supplemented with IsoVitaleX [29] that contained specified concentrations of the CMP-nonulosonate. Bacteria were then incubated at 37° C. for the period specified in each experiment.
Serum bactericidal assays were performed as follows, similar to methods outlined in [32,33] and in U.S. Pat. No. 9,765,106. Bacteria were harvested from an overnight culture on chocolate agar plates and ˜10^5 CFU of Ng were grown in liquid media containing the concentrations of CMP-NuIO as specified for each experiment. Bacteria were diluted in Morse A and ˜2000 CFU of Ng F62 ΔlgtD were incubated with NHS (concentration specified for each experiment). The final reaction volumes were maintained at 150 μL. Aliquots of 25 μL of reaction mixtures were plated onto chocolate agar in duplicate at the beginning of the assay (t0) and again after incubation at 37° C. for 30 minutes (t30). Survival was calculated as the number of viable colonies at t30 relative to t0.
Addition of a terminal Neu5Ac residue to the LNnT LOS of N. gonorrhoeae that occurs in vivo or following the addition of CMP-Neu5Ac to growth media results in resistance to complement-dependent killing. We next determined the effects of LNnT incorporation of KDN on the ability of N. gonorrhoeae F62 ΔlgtD to resist complement-dependent killing by normal human sera at concentrations of 3.3% or 10%. Bacteria were grown either in media alone, or media supplemented with 20 μg/mL of CMP-Neu5Ac or CMP-KDN. In addition, CMP-NulO competition experiments were also performed with CMP-Neu5Ac, CMP-Leg5Ac7Ac and CMP-KDN at CMP-NulO concentrations of either 20 μg/mL or 2 μg/mL as indicated, where the second CMP-NulO was added 15 minutes after the first (Table 1 below). To note, these CMP-NulO competition experiments are a method to examine the ability of select CMP-NulOs to counter the enhanced serum resistance due to CMP-Neu5Ac addition, providing information on their therapeutic potential (as any potential therapeutic will be required to compete with CMP-Neu5Ac in vivo).

T1 sequence (P72074 whole entry): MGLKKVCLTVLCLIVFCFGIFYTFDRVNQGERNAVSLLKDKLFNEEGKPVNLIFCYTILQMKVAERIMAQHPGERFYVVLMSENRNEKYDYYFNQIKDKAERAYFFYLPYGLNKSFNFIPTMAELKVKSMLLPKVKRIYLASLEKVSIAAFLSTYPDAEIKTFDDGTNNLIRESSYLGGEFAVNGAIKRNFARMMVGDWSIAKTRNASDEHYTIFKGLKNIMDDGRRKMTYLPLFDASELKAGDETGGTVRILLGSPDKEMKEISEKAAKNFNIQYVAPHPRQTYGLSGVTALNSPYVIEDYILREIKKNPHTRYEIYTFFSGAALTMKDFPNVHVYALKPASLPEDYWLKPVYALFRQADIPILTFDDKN

`Nc1ccn([C@@H]2O[C@H](COP(=O)(O)O[C@@]3(C(=O)O)CC(O)[C@@H](O)C([C@H](O)[C@H](O)CO)O3)C(O)C2O)c(=O)n1` (stereo partly drawn) [CMP-KDN, cytidine 5′-monophospho-3-deoxy-D-glycero-D-galacto-nonulosonic acid] was tested, and the “binding of mAb 3F11 (use as substrate by gonococcal Lst)” value [1] was “decreased binding of mAb 3F11 similarly”, the “% survival in 3.3% serum” value ([2]; CMP-Neu5Ac (20 μg/mL) first, labelled CMP-NulO (20 μg/mL) added 15 minutes later, 3.3% serum) was 107% and the “% survival in 10% serum” value ([2]; CMP-Neu5Ac (20 μg/mL) first, labelled CMP-NulO (20 μg/mL) added 15 minutes later, 10% serum) was 108%. The “serum resistance (in words)” value ([2]; CMP-NulO alone, 3.3% serum) was “complete serum resistance was observed”, the “serum sensitivity (in words)” value ([2]; CMP-NulO alone, 10% serum) was “serum sensitivity was observed” and the “countering of serum resistance mediated by CMP-Neu5Ac (competition, in words)” value ([2]; CMP-NulO competition, second CMP-NulO 15 minutes after the first, 3.3% and 10% serum) was “could only counter CMP-Neu5Ac induced serum resistance if it was provided before CMP-Neu5Ac”. The “% survival in 3.3% serum” value ([2]; Table 1, CMP-NulO 20 μg/mL alone, 3.3% serum) was 110%, the “% survival in 10% serum” value ([2]; Table 1, CMP-NulO 20 μg/mL alone, 10% serum) was 11% and the “% survival in 3.3% serum” value ([2]; labelled CMP-NulO (20 μg/mL) first, CMP-Neu5Ac (2 μg/mL) added 15 minutes later, 3.3% serum) was 107%. For the same molecule, the “% survival in 10% serum” value ([2]; labelled CMP-NulO (20 μg/mL) first, CMP-Neu5Ac (2 μg/mL) added 15 minutes later, 10% serum) was 10%, the “% survival in 3.3% serum” value ([2]; labelled CMP-NulO (20 μg/mL) first, CMP-Neu5Ac (20 μg/mL) added 15 minutes later, 3.3% serum) was 107% and the “% survival in 10% serum” value ([2]; labelled CMP-NulO (20 μg/mL) first, CMP-Neu5Ac (20 μg/mL) added 15 minutes later, 10% serum) was 11%.
